# Laboratory results taken from patent publication US10676467B2 (Washington University, priority 2017, dated 2020).
# Several values for one entry are separate records, joined by “and”; a condition that tells them apart may be missing. Equal entries are not always repeated.
# Experiments:
# S1P1 [1] = target: S1P1 (Mus musculus (Mouse), UniProt O08530); experiment: In vitro autoradiography of [18F]22b in brain slices of LPS-treated mice, SEW2871 blocking; assay type: binding; settings: brain sections of LPS-treated mice, ~6 nM tracer, 10 μM SEW2871, 60 min RT
# Protocol: To confirm the binding specificity of [^18F]22b toward S1P1, in vitro autoradiography studies were performed using mouse brain slices that generated from LPS-induced murine neuroinflammation model, a widely used model for neuroinflammation, and the expression of S1P1 was activated in the mouse brain following the LPS injection according to the report (M. Kono, E. G. Conlon, S. Y. Lux, K. Yanagida, T. Hla, R. L. Proia, Bioluminescence imaging of G protein-coupled receptor activation in living mice, Nat. Commun. 8 (2017) 1163). Adult male C57BL/6 mice (20-25 g, Charles River Inc., Frederick, Md.) were used to generate LPS-induced neuroinflammation murine model. The mice (n=2) received an intraperitoneal injection of LPS from E. coli 055:65 (Sigma-Aldrich, St. Louis, Mo., USA) in saline (3 mg/mL) at dose of 15 mg/kg (5 mL/kg) and then euthanized at 24 h post-injection. Mouse brains were collected and cut into 20 μm sequential sections using a Microm cryotome and mounted on glass slides. […] The distribution of radioactivity was visualized by a Fuji Bio-Imaging Analyzer FLA-7000 (Fuji Photo Film, Tokyo, Japan). Photo-stimulated luminescence (PSL) from the brain slices was quantified using Multi Gauge v3.0 software (Fuji Photo Film Co., Tokyo, Japan). Data were background-corrected, and expressed as photo-stimulated luminescence signals per square millimeter (PSL/mm^2).
# [2] = Ex vivo autoradiography of [18F]22b in rat brain; settings: male SD rat, 60 min post-injection
# Protocol: Frozen slides were directly exposed to a BAS storage phosphor screen film (BAS-IP-MS-2025) in an imaging cassette (Fuji Photo Film Co., Tokyo, Japan) for 12 h at -80° C. under the dark. The distribution of radioactivity was visualized by a Fuji Bio-Imaging Analyzer FLA-7000 (Fuji Photo Film Co., Tokyo, Japan). […] E. Toman, S. Spiegel, Lysophospholipid receptors in the nervous system, Neurochem. Res. 27 (2002) 619-627; […]. Tanaka, J. Aoki, H. Arai, S. Noji, Expression patterns of the lysophospholipid receptor genes during mouse early development, Dev. Dyn. […] Cytochem. 58 (2010) 847-856).
# S1P1 [3] = target: S1P1 (Rattus norvegicus (Rat), UniProt P48303); experiment: MicroPET and tracer kinetic modeling in EAE rat model, lumbar spinal cord; assay type: in vivo
# Protocol: MicroPET scans were performed using an Inveon PET/CT system (Siemens Inc., Knoxville, Tenn.). […] Each rat was secured to a custom-designed acrylic bed equipped with a nosecone for gas anesthesia. PET/CT scans were conducted under 1.5-2% isoflurane anesthesia with the rat placed in transaxial position and centered with the T13 vertebral spine in the field of view. […] A list mode protocol was used with 60-min dynamic data acquisition.
# PET image data was processed using filter back projection algorithm with attenuation and scatter corrections. The data were reconstructed per time frame employing an iterative reconstructional algorithm (three-dimensional ordered subset expectation maximization (3D-OSEM), maximum a posteriori (MAP)) and corrected for decay, random coincidences, scatter, and attenuation. […] Image data was analyzed using Inveon Research Workstation software IRW 4.2 (Siemens Inc., Knoxville, Tenn.). The regions of interest (ROI), the lumbar spinal cord and bilateral common carotid arteries, were drawn over the co-registered PET/CT images using the standard protocol published previously. Time-activity curves (TACs) were obtained and were expressed as % ID/g. A two-tailed t-test was used for the comparison of the tracer uptake in EAE rat lumbar spinal cord versus sham. A P value less than 0.05 was considered statistically significant. Time-activity curves were further analyzed using 2-tissue-compartment model (2TCM), as well as Logan graphical analysis, using the ROI over bilateral common carotid arteries for image-based arterial blood input function.
# [4] = Ex vivo biodistribution in female Lewis rats; design: species or system rat
# Excerpt: Organs of blood, heart, lung, muscle, fat, pancreas, spleen, kidney, liver, thymus, brain, and bone were dissected and collected for counting. All the samples were counted with a dilution of the injectate on an automated well counter (Beckman Gamma 8000 well counter). Tissues were weighed and the uptake was reported as background and decay-corrected percent injected dose per gram (% ID/g).
# The whole brains were quickly harvested and dissected into regions of cerebellum, brain stem, cortex, striatum, thalamus, and hippocampus, the remainder of the brain was also collected to determine the total brain uptake. Organs of blood, heart, lung, muscle, fat, pancreas, spleen, kidney, liver, thymus, and bone were also dissected and collected for counting. All the samples were counted with a dilution of the injectate on an automated well counter (Beckman Gamma 8000 well counter). Tissues were weighed and the uptake was reported as background and decay-corrected percent injected dose per gram (% ID/g).
# Chain of S1P1 (Rattus norvegicus (Rat), UniProt P48303) (P48303 whole entry): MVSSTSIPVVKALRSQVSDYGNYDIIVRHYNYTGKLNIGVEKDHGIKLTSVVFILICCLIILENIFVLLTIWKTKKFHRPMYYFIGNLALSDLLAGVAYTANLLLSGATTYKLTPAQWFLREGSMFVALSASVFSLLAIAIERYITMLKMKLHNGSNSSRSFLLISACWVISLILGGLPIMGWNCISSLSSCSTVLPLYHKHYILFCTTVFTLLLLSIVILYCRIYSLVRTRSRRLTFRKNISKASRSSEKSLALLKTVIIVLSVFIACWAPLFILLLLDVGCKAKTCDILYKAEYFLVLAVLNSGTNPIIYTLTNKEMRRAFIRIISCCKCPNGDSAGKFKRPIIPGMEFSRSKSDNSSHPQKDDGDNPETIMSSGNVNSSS
# Chain of S1P1 (Mus musculus (Mouse), UniProt O08530) (O08530 whole entry): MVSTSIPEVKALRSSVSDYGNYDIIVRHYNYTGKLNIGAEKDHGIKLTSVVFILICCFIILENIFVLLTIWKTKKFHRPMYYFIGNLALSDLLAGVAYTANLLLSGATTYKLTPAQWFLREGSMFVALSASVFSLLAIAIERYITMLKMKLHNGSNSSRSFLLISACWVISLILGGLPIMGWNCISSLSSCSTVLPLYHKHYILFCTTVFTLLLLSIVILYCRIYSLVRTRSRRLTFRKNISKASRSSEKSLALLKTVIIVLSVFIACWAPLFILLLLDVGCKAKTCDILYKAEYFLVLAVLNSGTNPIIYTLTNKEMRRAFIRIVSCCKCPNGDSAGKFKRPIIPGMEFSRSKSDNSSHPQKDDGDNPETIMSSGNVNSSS
compound,measurement,setting,value
OCc1cn(Cc2ccc(-c3noc(-c4ccc(OCC[18F])c(C(F)(F)F)c4)n3)cc2)nn1 [[^18F]22b],Reduction of tracer uptake by SEW2871 blocking,S1P1 [1],~36%
same,"Blood-brain barrier crossing, rat brain",[2],able to cross the BBB
same,Visualization of rat lumbar spinal cord by microPET,S1P1 [3]; EAE and sham rats,not high enough for clear visualization
same,"Tracer uptake in lumbar spinal cord, EAE","S1P1 [3]; EAE rats, summed % ID/g value, 10-60 min post injection, n=4",0.47±0.05 % ID/g
same,Increase of tracer uptake in EAE rat lumbar spinal cord compared with shams,"S1P1 [3]; microPET, 10-60 min post injection, listed as 18F-TZ43113",~37% and 36.7%
same,Tracer uptake in sham rat spinal cord (TAC),"S1P1 [3]; sham rats, 10-60 min post injection",approximately 0.35 % ID/g
same,"Tracer uptake in lumbar spinal cord, sham","S1P1 [3]; sham rats, summed % ID/g value, 10-60 min post injection, n=4",0.34±0.05 % ID/g
same,"Tissue uptake, Blood","[4]; 5 min p.i., n = 4",0.49 % ID/g and 0.49 ± 0.07 % ID/g
same,"Tissue uptake, Blood","[4]; 30 min p.i., n = 4",0.42 ± 0.05 % ID/g
same,"Tissue uptake, Blood","[4]; 60 min p.i., n = 4",0.36 ± 0.02 % ID/g
same,"Tissue uptake, Blood","[4]; 120 min p.i., n = 4",0.35 ± 0.01 % ID/g
same,"Tissue uptake, Bone","[4]; 5 min p.i., n = 4",0.55 % ID/g and 0.55 ± 0.05 % ID/g
same,"Tissue uptake, Bone","[4]; 30 min p.i., n = 4",0.45 ± 0.03 % ID/g
same,"Tissue uptake, Bone","[4]; 60 min p.i., n = 4",0.45 ± 0.01 % ID/g
same,"Tissue uptake, Bone","[4]; 120 min p.i., n = 4",0.51 ± 0.05 % ID/g
same,"Tissue uptake, Brain","[4]; 5 min p.i., n = 4",0.49 % ID/g and 0.49 ± 0.04 % ID/g
same,"Tissue uptake, Brain","[4]; 30 min p.i., n = 4",0.57 % ID/g and 0.57 ± 0.02 % ID/g
same,"Tissue uptake, Brain","[4]; 60 min p.i., n = 4",0.71 % ID/g and 0.71 ± 0.03 % ID/g
same,"Tissue uptake, Brain","[4]; 60 min p.i., n = 4, listed as 18F-TZ43113",0.71 % ID/g
same,"Tissue uptake, Brain","[4]; 120 min p.i., n = 4",0.61 % ID/g and 0.61 ± 0.05 % ID/g
same,"Tissue uptake, Fat","[4]; 5 min p.i., n = 4",0.51 % ID/g and 0.51 ± 0.22 % ID/g
same,"Tissue uptake, Fat","[4]; 30 min p.i., n = 4",0.62 ± 0.10 % ID/g
same,"Tissue uptake, Fat","[4]; 60 min p.i., n = 4",0.69 ± 0.07 % ID/g
same,"Tissue uptake, Fat","[4]; 120 min p.i., n = 4",0.57 ± 0.07 % ID/g
same,"Tissue uptake, Heart","[4]; 5 min p.i., n = 4",1.65 % ID/g and 1.65 ± 0.27 % ID/g
same,"Tissue uptake, Heart","[4]; 30 min p.i., n = 4",1.19 % ID/g and 1.19 ± 0.06 % ID/g
same,"Tissue uptake, Heart","[4]; 60 min p.i., n = 4",1.05 ± 0.08 % ID/g
same,"Tissue uptake, Heart","[4]; 120 min p.i., n = 4",0.94 ± 0.06 % ID/g
same,"Tissue uptake, Kidney","[4]; 5 min p.i., n = 4",3.43 % ID/g and 3.43 ± 0.31 % ID/g
same,"Tissue uptake, Kidney","[4]; 30 min p.i., n = 4",2.11 % ID/g and 2.11 ± 0.08 % ID/g
same,"Tissue uptake, Kidney","[4]; 60 min p.i., n = 4",1.91 ± 0.10 % ID/g
same,"Tissue uptake, Kidney","[4]; 120 min p.i., n = 4",1.62 ± 0.09 % ID/g
same,"Tissue uptake, Liver","[4]; 5 min p.i., n = 4",5.69 % ID/g and 5.69 ± 0.60 % ID/g
same,"Tissue uptake, Liver","[4]; 30 min p.i., n = 4",4.30 % ID/g and 4.30 ± 0.37 % ID/g
same,"Tissue uptake, Liver","[4]; 60 min p.i., n = 4",4.21 ± 0.21 % ID/g
same,"Tissue uptake, Liver","[4]; 120 min p.i., n = 4",3.66 ± 0.14 % ID/g
same,"Tissue uptake, Lung","[4]; 5 min p.i., n = 4",2.79 % ID/g and 2.79 ± 0.57 % ID/g
same,"Tissue uptake, Lung","[4]; 30 min p.i., n = 4",1.96 % ID/g and 1.96 ± 0.07 % ID/g
same,"Tissue uptake, Lung","[4]; 60 min p.i., n = 4",1.67 ± 0.09 % ID/g
same,"Tissue uptake, Lung","[4]; 120 min p.i., n = 4",1.54 ± 0.07 % ID/g
same,"Tissue uptake, Muscle","[4]; 5 min p.i., n = 4",0.39 % ID/g and 0.39 ± 0.04 % ID/g
same,"Tissue uptake, Muscle","[4]; 30 min p.i., n = 4",0.59 ± 0.05 % ID/g
same,"Tissue uptake, Muscle","[4]; 60 min p.i., n = 4",0.51 ± 0.02 % ID/g
same,"Tissue uptake, Muscle","[4]; 120 min p.i., n = 4",0.47 ± 0.02 % ID/g
same,"Tissue uptake, Pancreas","[4]; 5 min p.i., n = 4",1.96 % ID/g and 1.96 ± 0.56 % ID/g
same,"Tissue uptake, Pancreas","[4]; 30 min p.i., n = 4",1.89 ± 0.16 % ID/g
same,"Tissue uptake, Pancreas","[4]; 60 min p.i., n = 4",1.52 ± 0.25 % ID/g
same,"Tissue uptake, Pancreas","[4]; 120 min p.i., n = 4",1.45 ± 0.15 % ID/g
same,"Tissue uptake, Spleen","[4]; 5 min p.i., n = 4",2.22 % ID/g and 2.22 ± 0.23 % ID/g
same,"Tissue uptake, Spleen","[4]; 30 min p.i., n = 4",1.36 % ID/g and 1.36 ± 0.04 % ID/g
same,"Tissue uptake, Spleen","[4]; 60 min p.i., n = 4",1.27 ± 0.08 % ID/g
same,"Tissue uptake, Spleen","[4]; 120 min p.i., n = 4",1.14 ± 0.10 % ID/g
same,"Tissue uptake, Thymus","[4]; 5 min p.i., n = 4",0.69 % ID/g and 0.69 ± 0.08 % ID/g
same,"Tissue uptake, Thymus","[4]; 30 min p.i., n = 4",0.83 ± 0.07 % ID/g
same,"Tissue uptake, Thymus","[4]; 60 min p.i., n = 4",0.82 ± 0.04 % ID/g
same,"Tissue uptake, Thymus","[4]; 120 min p.i., n = 4",0.78 ± 0.05 % ID/g
same,Defluorination in vivo (bone uptake 5 to 120 min),[4]; bone radioactivity unchanged,no defluorination in vivo
same,"Regional brain uptake, brain stem","[4]; brain stem, 5 min p.i.",0.50 ID %/g
same,"Regional brain uptake, cerebellum","[4]; cerebellum, 5 min p.i.",0.53 ID %/g
same,"Regional brain uptake, cortex","[4]; cortex, 5 min p.i.",0.59 ID %/g
same,"Regional brain uptake, hippocampus","[4]; hippocampus, 5 min p.i.",0.43 ID %/g
same,Time of maximum brain uptake,[4]; post injection,60 min
same,"Regional brain uptake, striatum","[4]; striatum, 5 min p.i.",0.47 ID %/g
same,"Regional brain uptake, thalamus","[4]; thalamus, 5 min p.i.",0.46 ID %/g
